Like-named read-outs stand apart in the source and are kept apart here.

In patent US8822691B2, “Pesticidal carboxamides” (Bayer CropScience AG, priority 2009, dated 2014) one finds insecticidal activity, acaricidal activity and pest or weed control data, which are given here for 42 compounds.

Type in all cases: in vivo
One assay deals with Aulacophora femoralis. Kind of assay: Test against cucurbit leaf beetle (Aulacophora femoralis), leaf dip. The note with it: for pest or weed control at 500 ppm: Aulacophora, foliar, 168 h, read-out: insecticidal activity. Here is the method: (§1) Unless not mentioned otherwise, the test solutions were prepared as follows:
(§2) Containing as solvent: Dimethylformamide, 3 parts by weight; and as emulsifier: Polyoxyethylene alkyl phenyl ether, 1 part by weight
(§3) To prepare the test solution, 1 part by weight of an active compound is mixed with the above-mentioned amount of solvent containing the above-mentioned amount of emulsifier, and the mixture is diluted with water to the desired concentration.
Leaves of cucumber were immersed in the test solution at the appropriate concentration, and the leaves were dried in air. The leaves were then put in a plastic cup containing sterilized black soil and five Aulacophora femoralis at second instar larvae were released in the cup. The cups were placed in a temperature-controlled chamber at 25° C. After 7 days, the number of dead larvae was counted, and thus the insecticidal activity was calculated. An insecticidal activity of 100% means that all larvae were killed, whereas an insecticidal activity of 0% means that no larva was killed.

In a further assay the test system is Spodoptera litura. In words: Test against tobacco cutworm (Spodoptera litura) larvae, leaf dip. The note with it: active compound concentration of 100 ppm, third instar larvae on sweet potato leaves, after 7 days; for pest or weed control at 100 ppm: foliar, 168 h, read-out: insecticidal activity. Here is the method:
as §1, §2, §3
Leaves of sweet potato were immersed in the test solution at the appropriate concentration, and the leaves were dried in air. The leaves were then placed in a petri dish having a diameter of 9 cm, and ten Spodoptera litura at third instar larvae were released therein. The petri dishes were placed in a temperature-controlled chamber at 25° C. After 2 days and 4 days more sweet potato leaves were added. After 7 days, the number of dead larvae was counted to calculate the insecticidal activity. An insecticidal activity of 100% means that all larvae were killed, whereas an insecticidal activity of 0% means that no larva was killed. In the current test, the results of two petri dishes for each treatment were averaged.

The test system of the next assay is Tetranychus urticae. In words: Test against two-spotted spider mite (Tetranychus urticae), spray. The note with it: active compound concentration of 500 ppm; adult mites on kidney bean; after 7 days. On the procedure:
as §1, §2, §3
50 to 100 adult mites of Tetranychus urticae were inoculated to leaves of kidney bean at two-leaf stage planted in a pot of 6 cm in diameter. After one day, test solution at the appropriate concentration was sprayed thereon in a sufficient amount using a spray gun. After the spraying, the plant pot was placed inside a greenhouse, and after 7 days, the acaricidal activity was calculated. An acaricidal activity of 100% means that all mites were killed, whereas an acaricidal activity of 0% means that no mite was killed.

Where [1] appears, read: active compound concentration of 500 ppm, second instar larvae on cucumber leaves, after 7 days.

Turning to `Cc1cc(C(F)(C(F)(F)F)C(F)(F)F)cc(C)c1NC(=O)c1ccc2nccc(Br)c2c1` [2-13], the insecticidal activity in the assay with Aulacophora femoralis (setting [1]) and with Spodoptera litura was 100% in each case.

Take `Cc1cc(C(F)(C(F)(F)F)C(F)(F)F)cc(C)c1NC(=O)c1ccc2nc(Br)ccc2c1` [2-18]: in the assay on Aulacophora femoralis (setting [1]), the insecticidal activity is on record as 100%. Still for that read-out and setting: then `Cc1cc(C(F)(C(F)(F)F)C(F)(F)F)cc(C(C)C)c1NC(=O)c1ccc2c(ccc[n+]2[O-])c1` [2-36], with 100%. On to `Cc1cc(C(F)(C(F)(F)F)C(F)(F)F)cc(C(C)C)c1NC(=O)c1ccc2nc(C#N)ccc2c1` [2-37], for which the insecticidal activity in the assay with Aulacophora femoralis (setting [1]) and in the assay on Spodoptera litura was 100% each time. For `CC(C)c1cc(C(F)(C(F)(F)F)C(F)(F)F)cc(C(C)C)c1NC(=O)c1ccc2c(ccc[n+]2[O-])c1` [2-57], the insecticidal activity with Aulacophora femoralis (setting [1]) is listed as 100%.

In the assay on Aulacophora femoralis (setting [1]), `O=C(Nc1c(Cl)cc(C(F)(C(F)(F)F)C(F)(F)F)cc1Cl)c1ccc2ncccc2c1` [2-59] gave an insecticidal activity of 100%.

Consider `N#Cc1ccc2cc(C(=O)Nc3c(Cl)cc(C(F)(C(F)(F)F)C(F)(F)F)cc3Cl)ccc2n1` [2-61], for which the insecticidal activity in the assay on Aulacophora femoralis (setting [1]) and in the assay on Spodoptera litura was 100% throughout. Turning to `O=C(Nc1c(I)cc(C(F)(C(F)(F)F)C(F)(F)F)cc1I)c1ccc2c(ccc[n+]2[O-])c1` [2-68], the insecticidal activity with Aulacophora femoralis (setting [1]) and in the assay with Spodoptera litura was 100% each time.

`CCOC(c1cc(C)c(NC(=O)c2ccc3ncccc3c2)c(CC)c1)(C(F)(F)F)C(F)(F)F` [2-72] yielded an acaricidal activity in the assay with Tetranychus urticae of 100%. Regarding `CCOC(c1cc(C)c(NC(=O)c2ccc3nc(C#N)ccc3c2)c(CC)c1)(C(F)(F)F)C(F)(F)F` [2-74], the insecticidal activity in the assay with Aulacophora femoralis (setting [1]) and in the assay on Spodoptera litura was 100% throughout.

Turning to `CCc1cc(C(Oc2ccc(Cl)cc2)(C(F)(F)F)C(F)(F)F)cc(C)c1NC(=O)c1ccc2ncccc2c1` [2-78], the insecticidal activity in the assay on Aulacophora femoralis (setting [1]) and with Spodoptera litura was 100% throughout. In the case of `Cc1cc(C(F)(C(F)(F)F)C(F)(F)C(F)(F)F)cc(C)c1NC(=O)c1ccc2ncccc2c1` (centres unmarked) [2-85], in the assay on Tetranychus urticae, the acaricidal activity worked out at 100%.

In the case of `CCc1cc(C(F)(C(F)(F)F)C(F)(F)C(F)(F)F)cc(C)c1NC(=O)c1ccc2c(ccc[n+]2[O-])c1` (centres unmarked) [2-89], the insecticidal activity in the assay on Aulacophora femoralis (setting [1]) turned out to be 100%.

As to `CCCc1cc(C(F)(C(F)(F)F)C(F)(F)C(F)(F)F)cc(I)c1NC(=O)c1ccc2ncccc2c1` (centres unmarked) [2-102], in the assay with Spodoptera litura, the insecticidal activity was 100%. On the same count and under the same terms, under `CCCc1cc(C(F)(C(F)(F)F)C(F)(F)C(F)(F)F)cc(I)c1NC(=O)c1ccc2c(ccc[n+]2[O-])c1` (centres unmarked) [2-103] stands 100%. On to `CCCc1cc(C(F)(C(F)(F)F)C(F)(F)C(F)(F)F)cc(I)c1NC(=O)c1ccc2nc(C#N)ccc2c1` (centres unmarked) [2-104], for which the insecticidal activity with Aulacophora femoralis (setting [1]) and in the assay on Spodoptera litura was 100% throughout. For `O=C(Nc1c(I)cc(C(F)(C(F)(F)F)C(F)(F)C(F)(F)F)cc1I)c1ccc2ncccc2c1` (centres unmarked) [2-111], the insecticidal activity in the assay on Spodoptera litura was 100%. In the case of `O=C(Nc1c(I)cc(C(F)(C(F)(F)F)C(F)(F)C(F)(F)F)cc1I)c1ccc2c(ccc[n+]2[O-])c1` (centres unmarked) [2-112], the insecticidal activity with Aulacophora femoralis (setting [1]) is 100%.

On to `N#Cc1ccc2cc(C(=O)Nc3c(I)cc(C(F)(C(F)(F)F)C(F)(F)C(F)(F)F)cc3I)ccc2n1` (centres unmarked) [2-113], for which the insecticidal activity in the assay with Aulacophora femoralis (setting [1]) and in the assay on Spodoptera litura was 100% throughout. `CCc1cc(C2(F)C(F)(F)C(F)(F)C(F)(F)C(F)(F)C2(F)F)cc(C)c1NC(=O)c1ccc2ncccc2c1` [2-128] displayed an insecticidal activity in the assay with Spodoptera litura of 100%. The same measure, in the same setting: then `CCc1cc(C2(F)C(F)(F)C(F)(F)C(F)(F)C(F)(F)C2(F)F)cc(C)c1NC(=O)c1ccc2c(ccc[n+]2[O-])c1` [2-129], with 100%.

`N#Cc1ccc2cc(C(=O)Nc3c(Br)cc(OC(F)(F)F)cc3Br)ccc2n1` [2-139]: the insecticidal activity with Aulacophora femoralis (setting [1]) is given as 100%. `N#Cc1ccc2cc(C(=O)Nc3c(Br)cc(SC(F)(F)F)cc3Br)ccc2n1` [2-140]: the insecticidal activity in the assay on Aulacophora femoralis (setting [1]) and in the assay with Spodoptera litura was 100% throughout. In the assay with Spodoptera litura, `N#Cc1ccc2cc(C(=O)Nc3c(I)cc(C(F)(C(F)(F)F)C(F)(F)F)cc3SC(F)(F)F)ccc2n1` [2-161] came in with an insecticidal activity of 100%. On to `CCCc1cc(C(F)(C(F)(F)F)C(F)(F)C(F)(F)F)cc(Br)c1NC(=O)c1ccc2ncccc2c1` (centres unmarked) [2-162], for which the insecticidal activity with Aulacophora femoralis (setting [1]) and with Spodoptera litura was 100% throughout.

As for `CCCc1cc(C(F)(C(F)(F)F)C(F)(F)C(F)(F)F)cc(Br)c1NC(=O)c1ccc2nc(C#N)ccc2c1` (centres unmarked) [2-164], the insecticidal activity with Aulacophora femoralis (setting [1]) and in the assay with Spodoptera litura was 100% in each case.

Take `CC(C)c1cc(C(F)(C(F)(F)F)C(F)(F)C(F)(F)F)cc(I)c1NC(=O)c1ccc2nc(C#N)ccc2c1` (centres unmarked) [2-167]: the insecticidal activity in the assay with Aulacophora femoralis (setting [1]) and in the assay with Spodoptera litura was 100% each time. As for `N#Cc1ccc2cc(C(=O)Nc3c(Br)cc(C(F)(C(F)(F)F)C(F)(F)C(F)(F)F)cc3SC(F)(F)F)ccc2n1` (centres unmarked) [2-185], the insecticidal activity in the assay with Aulacophora femoralis (setting [1]) and in the assay on Spodoptera litura was 100% each time.

For the compound `O=C(Nc1c(I)cc(C(F)(C(F)(F)F)C(F)(F)C(F)(F)F)cc1SC(F)(F)F)c1ccc2ncccc2c1` (centres unmarked) [2-186], in the assay with Spodoptera litura, the insecticidal activity is reported as 100%. For `N#Cc1ccc2cc(C(=O)Nc3c(I)cc(C(F)(C(F)(F)F)C(F)(F)C(F)(F)F)cc3SC(F)(F)F)ccc2n1` (centres unmarked) [2-188], the insecticidal activity in the assay on Aulacophora femoralis (setting [1]) and in the assay on Spodoptera litura was 100% in each case. For the compound `CCc1cc(C(F)(C(F)(F)F)C(F)(F)Br)cc(C)c1NC(=O)c1ccc2c(ccc[n+]2[O-])c1` (centres unmarked) [2-193], the insecticidal activity in the assay on Aulacophora femoralis (setting [1]) is recorded as 100%. For `O=C(Nc1c(Br)cc(C(F)(C(F)(F)F)C(F)(F)Br)cc1Br)c1ccc2ncccc2c1` (centres unmarked) [2-195], the insecticidal activity in the assay on Aulacophora femoralis (setting [1]) and with Spodoptera litura was 100% each time. In turn, `O=C(Nc1c(I)cc(C(F)(C(F)(F)F)C(F)(F)Br)cc1I)c1ccc2ncccc2c1` (centres unmarked) [2-198] showed an insecticidal activity in the assay with Spodoptera litura of 100%. For `N#Cc1ccc2cc(C(=O)Nc3c(I)cc(C(F)(C(F)(F)F)C(F)(F)Br)cc3I)ccc2n1` (centres unmarked) [2-200], the insecticidal activity in the assay with Aulacophora femoralis (setting [1]) and in the assay on Spodoptera litura was 100% throughout.

As for `N#Cc1ccc2cc(C(=O)Nc3c(Br)cc(C(F)(C(F)(F)F)C(F)(F)C(F)(F)F)cc3Br)ccc2[n+]1[O-]` (centres unmarked) [2-270], the insecticidal activity with Spodoptera litura was 100%. Regarding `CCc1cc(C(F)(C(F)(F)F)C(F)(F)C(F)(F)F)cc(C)c1NC(=O)c1ccc(N=c2ssnc2Cl)c(Br)c1` (centres unmarked) [5-4], the insecticidal activity with Spodoptera litura amounted to 100%. On to `CCc1cc(C(F)(C(F)(F)F)C(F)(F)F)cc(C)c1NC(=O)c1ccc2cc(C#N)ccc2c1` [Compound No. 1-4, 6-cyano-N-[2-ethyl-4-(1,1,1,2,3,3,3-heptafluoropropan-2-yl)-6-methylphenyl]-2-naphthamide], for which, in the assay on Spodoptera litura, the pest or weed control at 100 ppm worked out at 100%. With `Cc1cc(C(F)(C(F)(F)F)C(F)(F)F)cc(C)c1NC(=O)c1ccc2nc(Cl)ccc2c1` [Compound No. 2-17, 2-chloro-N-[4-(1,1,1,2,3,3,3-heptafluoropropan-2-yl)-2,6-dimethylphenyl]quinoline-6-carboxamide], the pest or weed control at 500 ppm in the assay on Aulacophora femoralis (setting [1]) was 100%. The pest or weed control at 100 ppm in the assay on Spodoptera litura is 100%.

Turning to `Cc1cc(C(F)(C(F)(F)F)C(F)(F)F)cc(C)c1NC(=O)c1ccc2c(ccc(C#N)[n+]2[O-])c1` [Compound No. 2-21], the insecticidal activity in the assay with Aulacophora femoralis (setting [1]) and in the assay with Spodoptera litura was 100% in each case. Consider `O=C(Nc1c(Br)cc(C(F)(C(F)(F)F)C(F)(F)F)cc1OC(F)F)c1ccc2ncccc2c1` [Compound No. 2-152, N-[2-bromo-(1,1,1,2,3,3,3-heptafluoropropan-2-yl)-6-(difluoromethoxy)phenyl]quinoline-6-carboxamide], for which the pest or weed control at 500 ppm in the assay on Aulacophora femoralis (in Cucumis sativus) was 100%. Also, in the assay with Spodoptera litura, the pest or weed control at 100 ppm came out at 100%. With `O=C(Nc1c(I)cc(C(F)(C(F)(F)F)C(F)(F)C(F)(F)F)cc1OC(F)F)c1ccc2c(ccc[n+]2[O-])c1` (centres unmarked) [Compound No. 2-175, N-[2-(difluoromethoxy)-6-iodo-4-(1,1,1,2,3,3,4,4,4-nonafluorobutan-2-yl)phenyl]quinoline-6-carboxamide N-oxide], the pest or weed control at 500 ppm in the assay with Aulacophora femoralis (setting [1]) turned out to be 100%. Moreover, the pest or weed control at 100 ppm with Spodoptera litura came to 100%.

`O=C(Nc1c(Cl)cc(C(F)(C(F)(F)F)C(F)(F)F)cc1OC(F)F)c1ccc2ncccc2c1` [Compound No. 2-229, N-[2-chloro-(1,1,1,2,3,3,3-heptafluoropropan-2-yl)-6-(difluoromethoxy)phenyl]quinoline-6-carboxamide]: the pest or weed control at 500 ppm with Aulacophora femoralis (setting [1]) turned out to be 100%.
